Data on 2 compounds can be found in article PMC13589290, “Plasmodium falciparum HSP90 inhibitors show divergent resistance despite a shared ATP-binding site” (Cell reports, 2026).

For experiment [1], the target named is T1, HSC82 (Saccharomyces cerevisiae, UniProt P15108).
T1 construct: N-terminal domain, C-terminal hexahistidine tag
Kind of experiment: fluorescence polarization competition with GA-FITC on purified protein. It counts as binding. On the technique in general: In fluorescence polarisation assays a small probe gives low polarisation when free and higher when bound to something large.

In experiment [2] the target is T2, HSC82 (Saccharomyces cerevisiae, UniProt P15108, A41S).
T2 construct: N-terminal domain, C-terminal hexahistidine tag
The experiment is described as above. It counts as binding.

With `CCNC(=O)c1noc(-c2cc(C(C)C)c(O)cc2O)c1-c1ccc(CN2CCOCC2)cc1` [AUY-922], the “fluorescence polarization competition with GA-FITC on purified protein” value on HSC82 [1] is on record as “A41S reduced AUY-922 binding affinity in yeast HSC82, as evidenced by a rightward shift in the competition curve”; at HSC82 [2], “A41S reduced AUY-922 binding affinity in yeast HSC82, as evidenced by a rightward shift in the competition curve”.

As for `COC1=C2C[C@@H](C)C[C@H](OC)[C@H](O)[C@@H](C)/C=C(\C)[C@H](OC(N)=O)[C@@H](OC)/C=C\C=C(/C)C(=O)NC(=CC1=O)C2=O` [Geldanamycin], the “fluorescence polarization competition with GA-FITC on purified protein” value on HSC82 [1] and at HSC82 [2] was “GA binding was unaffected by the A41S substitution in yeast HSC82” in each case.
